Experimental data: paper PMC8746696 (Molecules, 2021)

How the values were obtained:
[1] = system: HeLa cells; assay: Influence on topotecan cytotoxicity (sensitization, combination index); format: cell-based, human; conditions: compound 5 μM
[2] = Intrinsic cytotoxicity, EZ4U assay, HEK293A; conditions: human, HEK293A cells
Description: (§1) Next, we examined the intrinsic cytotoxicity of the compounds on HeLa cervical cancer cells and human embryonic kidney derived cells HEK293A.
(§2) Cytotoxicity of the compounds to HeLa (human cervical cancer) and HEK293A (human embryonic kidney) cell lines was examined using the EZ4U Cell Proliferation and Cytotoxicity Assay (Biomedica, Vienna, Austria), according to the manufacturer’s protocols. The cells were grown in Iscove’s modified Dulbecco’s medium (IMDM) with 40 μg/mL gentamicin, 50 IU/mL penicillin, 50 μg/mL streptomycin (MP Biomedicals, Waltham, MA, USA), and 10% of fetal bovine serum (Biolot, Saint Petersburg, Russia) in a 5% CO2 atmosphere. After the formation of a 30–50%monolayer, the tested compounds were added to the medium. […] The volume of the added reagents was 1/100 of the total volume of the culture medium, and the amount of DMSO was 1% of the final volume. Control cells were grown in the presence of 1% DMSO. The cell culture was monitored for three days.

[3] = system: HeLa cells; assay: Intrinsic cytotoxicity, EZ4U assay, HeLa
Description: as §1, §2

[4] = Intrinsic cytotoxicity, EZ4U assay, HeLa; conditions: human, HeLa cells
Description: as §1, §2

[5] = system: HeLa cells; assay: Influence on topotecan cytotoxicity (sensitization, combination index); format: cell-based, human
Description: The inhibitors were studied, using their non-toxic concentration, to determine the cytotoxicity of topotecan, which is widely used in the treatment of cancer.
The concentration of these two compounds was increased to 10 μM and a more distinct effect was observed (Figure 3B). The combination index (CI) for different concentrations of topotecan and 5 at 10 μM was in the range 0.26–0.44, and for 8 at 10 μM, it was 0.18–0.30 (Supplementary Materials, Tables S1 and S2). CI value <1 indicates a synergistic effect of topotecan and compounds 5 and 8 [34].
The cell culture was monitored for three days.

[6] = target: TDP1 (Homo sapiens, UniProt Q9NUW8); assay: Real-time fluorescence detection of TDP1 activity (FAM/BHQ1 oligonucleotide biosensor); format: biochemical; conditions: concentration that inhibits the activity of the enzyme by 50%; read-out: TDP1 IC50
Chain of TDP1 (Q9NUW8 whole entry): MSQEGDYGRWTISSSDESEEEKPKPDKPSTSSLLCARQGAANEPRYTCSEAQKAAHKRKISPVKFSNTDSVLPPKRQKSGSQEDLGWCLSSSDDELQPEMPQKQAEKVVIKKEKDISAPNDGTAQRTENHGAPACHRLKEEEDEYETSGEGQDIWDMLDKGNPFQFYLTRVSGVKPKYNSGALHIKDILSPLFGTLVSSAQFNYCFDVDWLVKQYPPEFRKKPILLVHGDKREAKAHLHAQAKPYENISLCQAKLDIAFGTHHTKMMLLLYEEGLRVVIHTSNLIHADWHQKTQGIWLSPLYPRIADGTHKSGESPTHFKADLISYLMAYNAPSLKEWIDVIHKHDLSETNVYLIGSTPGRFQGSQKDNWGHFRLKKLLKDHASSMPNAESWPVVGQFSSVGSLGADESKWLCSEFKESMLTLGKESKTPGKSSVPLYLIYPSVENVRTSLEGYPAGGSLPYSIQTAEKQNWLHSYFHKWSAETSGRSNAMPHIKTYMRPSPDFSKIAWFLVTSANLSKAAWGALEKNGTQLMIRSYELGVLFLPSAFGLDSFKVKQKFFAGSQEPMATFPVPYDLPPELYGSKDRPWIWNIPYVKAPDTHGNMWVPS
From the text: For real-time detection of TDP1 activity, we used the oligonucleotide biosensor based on the ability of TDP1 to remove fluorophore quenchers from the 3′-end of DNA [29]. The hexadecameric oligonucleotide carried 5(6)-carboxyfluorescein (FAM) at the 5′-end and fluorophore quencher BHQ1 (Black Hole Quencher-1) at the 3′-end. TDP1 inhibitors prevent the removal of fluorophore quenchers, thus reducing fluorescence intensity.
TDP1 activity was detected, as described by intensity measurement in a reaction of quencher removal from a fluorophore quencher–coupled DNA oligonucleotide catalyzed by TDP1. The reaction was carried out at different concentrations of inhibitors (the control samples contained 1% of DMSO). The reaction mixtures contained TDP1 buffer (50 mM Tris-HCl pH 8.0, 50 mM NaCl, and 7 mM β-mercaptoethanol), 50 nM biosensor, and an inhibitor being tested. Purified TDP1 (1.5 nM) triggered the reaction. The biosensor (5′-[FAM] AAC GTC AGGGTC TTC C [BHQ]-3′) was synthesized in the Laboratory of Nucleic Acid Chemistry at the Institute of Chemical Biology and Fundamental Medicine (Novosibirsk, Russia).
The reactions were incubated on a POLARstar OPTIMA fluorimeter (BMG LABTECH, GmbH, Ortenberg, Germany) to measure fluorescence every 60 s (ex. 485/em. 520 nm) during the linear phase (here, data from minute 0 to minute 8). The values of IC50 were determined using a six-point concentration response curve in a minimum of three independent experiments and were calculated using MARS Data Analysis 2.0 (BMG LABTECH, Ortenberg, Germany).

[7] = target: T1, recombinant human TDP2 (Homo sapiens, UniProt O95551); assay: Gel-based TDP2 activity assay (removal of 5'-tyrosine from oligonucleotide, PAGE); format: biochemical; set-up: key to Tdp2 activity, c 200 µM / Tdp2 (inhibitor concentration 1 mM): TDP2 active (+); -: inactive (−); conditions: for Tdp2 activity, c 200 µM: c 200 µM (Table S3 head); for Tdp2 (inhibitor concentration 1 mM) / remaining activity at 1000 µM: inhibitor 1 mM; for remaining activity at 1000 µM: residual enzyme activity, read-out: TDP2 (Inhibitor Concentration 1 mM), residual activity of TDP2
T1 sequence (O95551 1-362): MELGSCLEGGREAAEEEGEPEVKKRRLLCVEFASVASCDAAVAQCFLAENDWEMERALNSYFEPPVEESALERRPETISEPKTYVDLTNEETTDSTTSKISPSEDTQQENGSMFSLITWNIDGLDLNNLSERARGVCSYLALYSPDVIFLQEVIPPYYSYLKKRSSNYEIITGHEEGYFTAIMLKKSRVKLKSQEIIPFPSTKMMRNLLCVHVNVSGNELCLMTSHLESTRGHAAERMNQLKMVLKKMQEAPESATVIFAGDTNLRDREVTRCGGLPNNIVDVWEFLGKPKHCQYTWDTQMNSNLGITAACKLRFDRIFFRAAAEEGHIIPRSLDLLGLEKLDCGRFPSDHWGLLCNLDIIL
Description: We investigated the activity against the TDP2 enzyme for compounds 4–10, 12–15, and 17–19 (Table 1). TDP2 was tested for its ability to eliminate tyrosine residue from the 5’-end of the oligonucleotide substrate. The TDP2 reaction products were separated under denaturing conditions in polyacrylamide gel (PAGE). […] Note that as different assays formats were used for TDP1 and TDP2 inhibition, the value of these assays cannot be directly compared. A paper on derivatives of usnic acid as effective TDP1 inhibitors and mild inhibitors of TDP2 was recently published. […] More inhibitors of this enzyme have also been reported in the literature. Obviously, further work for increasing activity against TDP2 is needed.
The oligonucleotide with tyrosine residue on the 5′-end (5′-tyrosine-AAC GTC AGG GTC TTC C-FAM-3′) was used for the TDP2 enzyme activity assay. The TDP2 reaction products were separated under denaturing conditions in polyacrylamide gel (PAGE). The reaction was performed in a final volume of 20 μL using 100 nM substrate incubated with 200 nM recombinant human TDP2 in the absence or presence of the inhibitor for 10 min at 37 °C in a buffer containing 50 mM Tris-HCl, pH 8.0, 50 mM NaCl, 7 mM β-mercaptoethanol. Reactions were terminated by the addition of gel loading buffer contained 10% formamide, 7 M carbamide, 0.1% xylene cyanol, and 0,1% bromophenol blue. The samples were heated at 90 °C for 7 min before loading on the gel. The reaction products were separated by electrophoresis in a 20% denaturing PAGE with 7 M carbamide. A Typhoon FLA 9500 phosphorimager (GE Healthcare) was used for gel scanning and imaging. Each experiment was carried out in three independent replicates. The data were analyzed with QuantityOne 4.6.7 software.

[8] = system: HeLa cells
Description: as §1, §2

C[C@H](CCC(=O)NCCc1c[nH]c2ccccc12)[C@H]1CC[C@H]2[C@@H]3CC[C@@H]4C[C@H](OCc5ccccc5)CC[C@]4(C)[C@H]3C[C@H](O)[C@]12C [Compound 5, N-(2″-(1H-Indol-3′-yl)ethyl)-3α-benzyloxy-12α-hydroxy-5β-cholane-24-amide]
sensitizing effect on topotecan cytotoxicity [1]: greatest sensitizing effect
CC50 at 72 h [2]: > 100 µM
HeLa cell death ([3]; at 100 μM): 40%
CC50 at 72 h [4]: > 100 µM
CI ([5]; Dose Tpc 0.3 + compound 10 μM): 0.4463
Effect ([5]; Dose Tpc 0.3 + compound 10 μM): 0.61
CI ([5]; Dose Tpc 0.5 + compound 10 μM): 0.3748
Effect ([5]; Dose Tpc 0.5 + compound 10 μM): 0.76
CI ([5]; Dose Tpc 1.0 + compound 10 μM): 0.3937
Effect ([5]; Dose Tpc 1.0 + compound 10 μM): 0.86
CI ([5]; Dose Tpc 2.0 + compound 10 μM): 0.2628
Effect ([5]; Dose Tpc 2.0 + compound 10 μM): 0.95
CI ([5]; Dose Tpc 4.0 + compound 10 μM): 0.4189
Effect ([5]; Dose Tpc 4.0 + compound 10 μM): 0.96
IC50 [6]: 0.24 ± 0.01 µM
Tdp2 activity, c 200 µM [7]: +
Tdp2 (inhibitor concentration 1 mM) [7]: +
remaining activity at 1000 µM [7]: 28 ± 5%

C[C@H](CCC(=O)Nc1ccc(Br)cc1)[C@H]1CC[C@H]2[C@@H]3CC[C@@H]4C[C@H](OCc5ccccc5)CC[C@]4(C)[C@H]3C[C@H](O)[C@]12C [Compound 8, N-(4′-Bromophenyl)-3α-benzyloxy-12α-hydroxy-5β-cholane-24-amide]
sensitizing effect on topotecan cytotoxicity [1]: greatest sensitizing effect
CC50 at 72 h [2]: > 100 µM
HeLa cell death ([3]; at 20 μM): 40%
HeLa cell death ([3]; at 100 μM): maintaining this level of toxicity
CC50 at 72 h [4]: > 100 µM
CI ([5]; Dose Tpc 0.5 + compound 10 μM): 0.2446
Effect ([5]; Dose Tpc 0.5 + compound 10 μM): 0.67
CI ([5]; Dose Tpc 1.0 + compound 10 μM): 0.2817
Effect ([5]; Dose Tpc 1.0 + compound 10 μM): 0.78
CI ([5]; Dose Tpc 2.0 + compound 10 μM): 0.1757
Effect ([5]; Dose Tpc 2.0 + compound 10 μM): 0.92
CI ([5]; Dose Tpc 4.0 + compound 10 μM): 0.3046
Effect ([5]; Dose Tpc 4.0 + compound 10 μM): 0.93
IC50 [6]: 0.57 ± 0.3 µM
Tdp2 activity, c 200 µM [7]: +
Tdp2 (inhibitor concentration 1 mM) [7]: +
remaining activity at 1000 µM [7]: 47 ± 3%

C[C@H](CCC(=O)NCCCc1cc(C(C)(C)C)c(O)c(C(C)(C)C)c1)[C@H]1CC[C@H]2[C@@H]3CC[C@@H]4C[C@H](OCc5ccccc5)CC[C@]4(C)[C@H]3C[C@H](OCc3ccccc3)[C@]12C [Compound 10, N-(3″-(3′,5′-Di-tert-butyl-4′-hydroxyphenyl)propyl)-3α,12α-dibenzyloxy-5β-cholane-24-amide]
CC50 at 72 h [2]: > 100 µM
CC50 at 72 h [4]: > 100 µM
IC50 [6]: 0.37 ± 0.17 µM
Tdp2 activity, c 200 µM [7]: +
Tdp2 (inhibitor concentration 1 mM) [7]: +
remaining activity at 1000 µM [7]: 45 ± 6%

COc1cc([C@@H]2c3cc4c(cc3[C@@H](O[C@@H]3O[C@@H]5CO[C@@H](C)O[C@H]5[C@H](O)[C@H]3O)[C@H]3COC(=O)[C@H]23)OCO4)cc(OC)c1O [Etoposide, reference compound]
CC50 at 72 h [2]: 5.9 ± 1.8 µM
CC50 at 72 h [4]: 6.2 ± 0.6 µM
semi-toxic concentrations [8]: micromolar

CC[C@@]1(O)C(=O)OCc2c1cc1n(c2=O)Cc2cc3c(CN(C)C)c(O)ccc3nc2-1 [Topotecan, reference compound]
CC50 at 72 h [2]: 0.33 ± 0.07 µM
CC50 at 72 h [4]: 0.9 ± 0.1 µM
semi-toxic concentrations [8]: submicromolar
